Assay results published in patent US9850283B2, “Macrocyclic inhibitors of the PD-1/PD-L1 and CD80(B7-1)/PD-L1 protein/protein interactions” (BRISTOL-MYERS SQUIBB COMPANY, priority 2013, dated 2017).
Read-outs that look alike come from different tables or passages of the source. Positions of bridges follow the written chain, without caps; N, C: chain ends. Non-standard residues stand in square brackets, D forms with d. Residues, ends and D or L forms follow the SMILES beside them. ξ: configuration not given here. Hyp = O=C(O)[C@@H]1C[C@@H](O)CN1; NMeF = CN[C@@H](Cc1ccccc1)C(=O)O; NMeNle = CCCC[C@H](NC)C(=O)O; NMeM = CN[C@@H](CCSC)C(=O)O; NMeA = CN[C@@H](C)C(=O)O; Dab = NCC[C@H](N)C(=O)O; Dap = NC[C@H](N)C(=O)O; ξC = NC(CS)C(=O)O; Sar = CNCC(=O)O

Assays:
Human PD-L1/PD-1 = molecular target: T1, Human PD-L1/PD-1 (Homo sapiens, UniProt Q9NZQ7); test: HTRF PD-1-Ig/PD-L1-His binding assay (human PD-L1); conditions: cluster symbol; read-out: HTRF IC50 cluster
T1 construct: made in house; host or cells: HEK293T
How it was run: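 Ig- and His-fused extracellular PD-1/PD-L1 binding in BSA/Tween-20 dPBS. HTRF with Eu anti-Ig (1 nM final) and APC anti-His (20 nM final).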

[1] = molecular target: T2, LK35.2-hPD-L1 cells / PE-labeled PD-1-Ig (Homo sapiens, UniProt Q9NZQ7); test: LK35.2-hPD-L1 cell binding high-content screening assay; assay type: cell-based; conditions: cluster symbol, read-out: CBA IC50 cluster
T2 construct: expressed in transfected cells; host or cells: LK35.2 mouse B cell line
How it was run: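 Using overnight-cultured LK35.2-hPD-L1 mouse B cells, compound was co-incubated with phycoerythrin-tagged human PD-1-Ig (final 1 nM) at 37 °C for one hour. Unbound label was removed by triple dPBS washing prior to high-content image acquisition and analysis.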

[2] = cell line of CBA not given (LK35.2-hPD-L1 or 293T-hPD-L1)
[3] = cell binding assay, cell line not given

T2 sequence (Q9NZQ7 19-290): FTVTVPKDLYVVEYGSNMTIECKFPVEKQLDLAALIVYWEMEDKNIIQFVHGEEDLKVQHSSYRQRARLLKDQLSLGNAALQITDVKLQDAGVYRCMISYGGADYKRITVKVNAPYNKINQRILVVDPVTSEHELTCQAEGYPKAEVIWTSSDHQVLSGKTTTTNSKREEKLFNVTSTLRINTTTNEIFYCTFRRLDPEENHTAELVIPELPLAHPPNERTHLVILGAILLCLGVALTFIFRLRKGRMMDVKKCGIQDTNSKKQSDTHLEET
T1 sequence (Q9NZQ7 with tags, fused parts or gaps): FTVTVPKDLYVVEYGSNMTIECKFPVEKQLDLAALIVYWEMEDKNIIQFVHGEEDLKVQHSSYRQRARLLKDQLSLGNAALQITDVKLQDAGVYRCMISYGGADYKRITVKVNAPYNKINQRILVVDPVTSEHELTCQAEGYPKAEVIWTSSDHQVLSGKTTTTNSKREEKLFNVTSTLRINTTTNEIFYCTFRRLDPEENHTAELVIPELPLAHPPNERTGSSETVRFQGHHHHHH

| IC50 (Human PD-L1/PD-1) [nM] | IC50 [1, 2] [nM] | IC50 [1, 3] [nM] | SMILES |
| --- | --- | --- | --- |
| 6.76 to 30.3 | 4.78 to 72.9 |  | CCCC[C@H]1C(=O)N(C)[C@@H](CCCC)C(=O)N[C@@H](CCCNC(=N)N)C(=O)N[C@H](C(=O)NCC(N)=O)CSCC(=O)N[C@@H](Cc2ccccc2)C(=O)N(C)[C@@H](C)C(=O)N[C@@H](CC(N)=O)C(=O)N2CCC[C@H]2C(=O)N[C@@H](CN)C(=O)N[C@@H](CC(C)C)C(=O)N(C)CC(=O)N[C@@H](Cc2c[nH]c3ccccc23)C(=O)N[C@@H](CO)C(=O)N[C@@H](Cc2c[nH]c3ccccc23)C(=O)N1C [Example 1060] ({CH2CO}-F[NMeA]NP[Dap]L[Sar]WSW[NMeNle][NMeNle]RCG-NH2; thioether N-14) |
| 6.76 to 30.3 | 4.78 to 72.9 |  | CCCC[C@H]1C(=O)N(C)CC(=O)N[C@@H](CC(=O)O)C(=O)N[C@@H](C(C)C)C(=O)N(C)[C@@H](Cc2ccccc2)C(=O)N[C@@H](Cc2ccc(O)cc2)C(=O)N(C)CC(=O)N[C@@H](Cc2c[nH]c3ccccc23)C(=O)N[C@@H](Cc2ccc(O)cc2)C(=O)N[C@@H](CN)C(=O)N[C@H](C(=O)NCC(N)=O)CSCC(=O)N[C@@H](Cc2ccccc2)C(=O)N(C)[C@@H](Cc2ccccc2)C(=O)N1C [Example 3161] ({CH2CO}-F[NMeF][NMeNle][Sar]DV[NMeF]Y[Sar]WY[Dap]CG-NH2; thioether N-13) |
| 0.385 to 6.74 |  | 0.158 to 4.71 | CCCC[C@H]1C(=O)N(C)[C@@H](CCCC)C(=O)N[C@@H](CCC(=O)O)C(=O)N[C@H](C(=O)NCC(N)=O)CSCC(=O)N[C@@H](Cc2ccc(O)cc2)C(=O)N(C)[C@@H](C)C(=O)N[C@@H](CC(=O)O)C(=O)N2CCC[C@H]2C(=O)N[C@@H](Cc2cnc[nH]2)C(=O)N[C@@H](CCCCN)C(=O)N2C[C@H](O)C[C@H]2C(=O)N[C@@H](Cc2c[nH]c3ccccc23)C(=O)N[C@@H](CCCCN)C(=O)N[C@@H](Cc2c[nH]c3ccccc23)C(=O)N1C [Example 5069] ({CH2CO}-Y[NMeA]DPHK[Hyp]WKW[NMeNle][NMeNle]ECG-NH2; thioether N-14) |
| 0.385 to 6.74 |  | 0.158 to 4.71 | CCCC[C@H]1C(=O)N[C@@H](CCCNC(=N)N)C(=O)NC(C(=O)NCC(N)=O)CSCC(=O)N[C@@H](Cc2ccc(O)cc2)C(=O)N(C)[C@@H](C)C(=O)N[C@@H](CC(N)=O)C(=O)N2CCC[C@H]2C(=O)N[C@@H](CN)C(=O)N[C@@H](CC(C)C)C(=O)N2CCC[C@H]2C(=O)N[C@@H](Cc2c[nH]c3ccccc23)C(=O)N[C@@H](CO)C(=O)N[C@@H](Cc2c[nH]c3ccccc23)C(=O)N(C)[C@@H](CCSC)C(=O)N1C (stereo partly drawn) [Example 9089] ({CH2CO}-Y[NMeA]NP[Dap]LPWSW[NMeM][NMeNle]R[ξC]G-NH2; thioether N-14) |
| 0.385 to 6.74 |  | 0.158 to 4.71 | CCCC[C@H]1C(=O)N(C)[C@@H](CCCC)C(=O)N[C@@H](CCCNC(=N)N)C(=O)N[C@H](C(=O)NCC(N)=O)CSCC(=O)N[C@@H](Cc2ccc(O)cc2)C(=O)N(C)[C@@H](C)C(=O)N[C@@H](CCN)C(=O)N2CCC[C@H]2C(=O)N[C@@H](CN)C(=O)N[C@@H](CCC(=O)O)C(=O)N2C[C@H](O)C[C@H]2C(=O)N[C@@H](Cc2c[nH]c3ccccc23)C(=O)N[C@@H](CO)C(=O)N[C@@H](Cc2c[nH]c3ccccc23)C(=O)N1C [Example 5131] ({CH2CO}-Y[NMeA][Dab]P[Dap]E[Hyp]WSW[NMeNle][NMeNle]RCG-NH2; thioether N-14) |
| 0.385 to 6.74 |  | 0.158 to 4.71 | CCCC[C@H]1C(=O)N(C)[C@@H](CCCC)C(=O)N[C@@H](CC(C)C)C(=O)N[C@H](C(=O)NCC(N)=O)CSCC(=O)N[C@@H](Cc2ccc(O)cc2)C(=O)N(C)[C@@H](C)C(=O)N[C@@H](CC(N)=O)C(=O)N2CCC[C@H]2C(=O)N[C@@H](Cc2c[nH]cn2)C(=O)N[C@@H](CCC(N)=O)C(=O)N2C[C@H](O)C[C@H]2C(=O)N[C@@H](Cc2c[nH]c3ccccc23)C(=O)NCC(=O)N[C@@H](Cc2c[nH]c3ccccc23)C(=O)N1C [Example 5109] ({CH2CO}-Y[NMeA]NPHQ[Hyp]WGW[NMeNle][NMeNle]LCG-NH2; thioether N-14) |
